The values below come from patent US7772183B2 (Bristol-Myers Squibb Company, priority 2005, dated 2010).

Each structure is given as a SMILES string.

A word on the IC50: it is the concentration at which inhibition is half-maximal. By EC50 is commonly meant the concentration that produces a half-maximal response. Broadly, the melting point is the temperature, or range, at which the solid turns liquid.

For data set [1], the target named is T1, HCV NS3/4A protease complex, BMS strain (UniProt P27958, species not given/STRAIN_BMS).
T1 construct: said of H77 and J4L6S; fused on or other part: A three-lysine solubilising tail at the C-terminus of NS4A and a His tag (pET21b, Ni-NTA purification)
T1 sequence (P27958 1027-1657, change not shown, one chain of several): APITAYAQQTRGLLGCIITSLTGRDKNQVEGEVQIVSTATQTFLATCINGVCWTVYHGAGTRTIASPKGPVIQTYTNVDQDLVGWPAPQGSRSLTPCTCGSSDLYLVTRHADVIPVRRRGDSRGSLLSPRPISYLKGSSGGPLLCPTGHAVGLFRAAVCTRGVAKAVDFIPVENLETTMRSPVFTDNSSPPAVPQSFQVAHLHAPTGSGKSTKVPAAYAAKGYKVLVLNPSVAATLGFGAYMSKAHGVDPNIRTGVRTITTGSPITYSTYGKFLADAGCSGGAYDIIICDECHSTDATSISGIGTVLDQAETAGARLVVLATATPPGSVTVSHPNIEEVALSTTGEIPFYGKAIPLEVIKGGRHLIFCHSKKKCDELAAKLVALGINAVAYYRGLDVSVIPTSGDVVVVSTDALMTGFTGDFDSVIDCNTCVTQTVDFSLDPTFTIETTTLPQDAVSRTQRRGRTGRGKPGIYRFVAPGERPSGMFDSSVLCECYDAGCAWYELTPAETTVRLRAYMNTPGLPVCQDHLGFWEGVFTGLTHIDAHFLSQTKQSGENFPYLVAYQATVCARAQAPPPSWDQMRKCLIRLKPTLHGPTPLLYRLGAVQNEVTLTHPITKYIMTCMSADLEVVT
Briefly: FRET peptide assay to monitor HCV NS3/4A proteolytic activity (BMS strain). The class given is biochemical, Hepatitis C virus (genotype 1a). Particulars: NS3/4A BMS strain; read-out: IC50 Range. The text has this:
HCV NS3 protease complexes, derived from the BMS strain, H77 strain or J4L6S strain, were generated, as described below. These purified recombinant proteins were generated for use in a homogeneous assay (see below) to provide an indication of how effective compounds of the present disclosure would be in inhibiting HCV NS3 proteolytic activity.
Serum from an HCV-infected patient was obtained from Dr. T. Wright, San Francisco Hospital. An engineered full-length cDNA (compliment deoxyribonucleic acid) template of the HCV genome (BMS strain) was constructed from DNA fragments obtained by reverse transcription-PCR (RT-PCR) of serum RNA (ribonucleic acid) and using primers selected on the basis of homology between other genotype 1a strains. From the determination of the entire genome sequence, a genotype 1a was assigned to the HCV isolate according to the classification of Simmonds et al. (See P Simmonds, K A Rose, S Graham, S W Chan, F McOmish, B C Dow, E A Follett, P L Yap and H Marsden, J. Clin. Microbiol., 31(6), 1493-1503 (1993)). […] The infectious clones, H77 (1a genotype) and J4L6S (1b genotype) were obtained from R. Purcell (NIH) and the sequences are published in Genbank (AAB67036, see Yanagi, M., Purcell, R. H., Emerson, S. U. and Bukh, J. Proc. Natl. Acad. Sci. U.S.A. 94(16), 8738-8743 (1997); AF054247, see Yanagi, M., St Claire, M., Shapiro, M., Emerson, S. U., Purcell, R. H. and Bukh, J, Virology 244 (1), 161-172. (1998)).
The H77 and J4L6S strains were used for production of recombinant NS3/4A protease complexes. DNA encoding the recombinant HCV NS3/4A protease complex (amino acids 1027 to 1711) for these strains were manipulated as described by P. Gallinari et al. (see Gallinari P, Paolini C, Brennan D, Nardi C, Steinkuhler C, De Francesco R. Biochemistry. 38(17):5620-32, (1999)). Briefly, a three-lysine solubilizing tail was added at the 3′-end of the NS4A coding region. The cysteine in the P1 position of the NS4A-NS4B cleavage site (amino acid 1711) was changed to a glycine to avoid the proteolytic cleavage of the lysine tag. Furthermore, a cysteine to serine mutation was introduced by PCR at amino acid position 1454 to prevent the autolytic cleavage in the NS3 helicase domain. The variant DNA fragment was cloned in the pET21b bacterial expression vector (Novagen) and the NS3/4A complex was expressed in Escherichia coli strain BL21 (DE3) (Invitrogen) following the protocol described by P. Gallinari et al. (see Gallinari P, Brennan D, Nardi C, Brunetti M, Tomei L, Steinkuhler C, De Francesco R., J Virol. 72(8):6758-69 (1998)) with modifications. Briefly, the NS3/4A protease complex expression was induced with 0.5 mM Isopropyl β-D-1-thiogalactopyranoside (IPTG) for 22 hours (h) at 20° C. A typical fermentation (1 Liter (L)) yielded approximately 10 grams (g) of wet cell paste. The cells were resuspended in lysis buffer (10 mL/g) consisting of 25 mM N-(2-Hydroxyethyl)Piperazine-N′-(2-Ethane Sulfonic acid) (HEPES), pH 7.5, 20% glycerol, 500 mM Sodium Chloride (NaCl), 0.5% Triton X-100, 1 microgram/milliliter (“μg/mL”) lysozyme, 5 mM Magnesium Chloride (MgCl2), 1 μg/ml Dnasel, 5 mM β-Mercaptoethanol (βME), Protease inhibitor-Ethylenediamine Tetraacetic acid (EDTA) free (Roche), homogenized and incubated for 20 minutes (min) at 4° C. The homogenate was sonicated and clarified by ultra-centrifugation at 235000 g for 1 h at 4° C. Imidazole was added to the supernatant to a final concentration of 15 mM and the pH adjusted to 8.0. The crude protein extract was loaded on a Nickel-Nitrilotriacetic acid (Ni-NTA) column pre-equilibrated with buffer B (25 mM HEPES, pH 8.0, 20% glycerol, 500 mM NaCl, 0.5% Triton X-100, 15 mM imidazole, 5 mM βME). The sample was loaded at a flow rate of 1 mL/min. The column was washed with 15 column volumes of buffer C (same as buffer B except with 0.2% Triton X-100). The protein was eluted with 5 column volumes of buffer D (same as buffer C except with 200 mM Imidazole). […]

The subject of data set [2] is HCV replicon in HUH-7 cells. Briefly: HCV replicon FRET assay. The data set is classed as cell-based, Hepatitis C virus (strain 1b). The following applies: Hepatitis C virus, Huh-7; HCV replicon, for compounds tested; read-out: EC50 Range. From the text:
An HCV replicon whole cell system was established as described by Lohmann V, Komer F, Koch J, Herian U, Theilmann L, Bartenschlager R., Science 285(5424):110-3 (1999). This system enabled us to evaluate the effects of our HCV Protease compounds on HCV RNA replication. Briefly, using the HCV strain 1b sequence described in the Lohmann paper (Assession number: AJ238799), an HCV cDNA was synthesized by Operon Technologies, Inc. (Alameda, Calif.), and the full-length replicon was then assembled in plasmid pGem9zf(+) (Promega, Madison, Wis.) using standard molecular biology techniques. The replicon consists of (i) the HCV 5′ UTR fused to the first 12 amino acids of the capsid protein, (ii) the neomycin phosphotransferase gene (neo), (iii) the IRES from encephalomyocarditis virus (EMCV), and (iv) HCV NS3 to NS5B genes and the HCV 3′ UTR. Plasmid DNAs were linearized with Scal and RNA transcripts were synthesized in vitro using the T7 MegaScript transcription kit (Ambion, Austin, Tex.) according to manufacturer's directions. In vitro transcripts of the cDNA were transfected into the human hepatoma cell line, HUH-7. […] Resulting cell lines were characterized for positive and negative strand RNA production and protein production over time.
The HCV replicon FRET assay was developed to monitor the inhibitory effects of compounds described in the disclosure on HCV viral replication. HUH-7 cells, constitutively expressing the HCV replicon, were grown in Dulbecco's Modified Eagle Media (DMEM) (Gibco-BRL) containing 10% Fetal calf serum (FCS) (Sigma) and 1 mg/ml G418 (Gibco-BRL). Cells were seeded the night before (1.5×10^4 cells/well) in 96-well tissue-culture sterile plates. Compound and no compound controls were prepared in DMEM containing 4% FCS, 1:100 Penicillin/Streptomysin (Gibco-BRL), 1:100 L-glutamine and 5% DMSO in the dilution plate (0.5% DMSO final concentration in the assay). Compound/DMSO mixes were added to the cells and incubated for 4 days at 37° C. After 4 days, cells were first assessed for cytotoxicity using alamar Blue (Trek Diagnotstic Systems) for a CC50 reading. The toxicity of compound (CC50) was determined by adding 1/10th volume of alamar Blue to the media incubating the cells. After 4 hours, the fluorescence signal from each well was read, with an excitation wavelength at 530 nm and an emission wavelength of 580 nm, using the Cytofluor Series 4000 (Perspective Biosystems). Plates were then rinsed thoroughly with Phosphate-Buffered Saline (PBS) (3 times 150 μl). The cells were lysed with 25 μl of a lysis assay reagent containing an HCV protease substrate (5× cell Luciferase cell culture lysis reagent (Promega #E153A) diluted to 1× with distilled water, NaCl added to 150 mM final, the FRET peptide substrate (as described for the enzyme assay above) diluted to 10 μM final from a 2 mM stock in 100% DMSO. […]. The plate was then placed into the Cytofluor 4000 instrument which had been set to 340 nm excitation/490 nm emission, automatic mode for 21 cycles and the plate read in a kinetic mode. EC50 determinations were carried out as described for the IC50 determinations.

`COC(=O)c1ccc(C(=O)O[C@@H]2C[C@H]3C(=O)N[C@]4(C(=O)NS(=O)(=O)C5CC5)C[C@H]4/C=C\CCCCC[C@H](NC(=O)OC(C)(C)C)C(=O)N3C2)cc1` [Compound 31] gave a melting point of 154 to 156 °C. The IC50 in data set [1] is less than 100 nM. Also, the EC50 in data set [2] is less than 100 nM.
Compound `CC(C)(C)OC(=O)N[C@H]1CCCCC/C=C\[C@@H]2C[C@@]2(C(=O)NS(=O)(=O)C2CC2)NC(=O)[C@@H]2C[C@@H](OC(=O)c3cccc(OC(F)(F)F)c3)CN2C1=O` [Compound 17, 18-[(3-trifluoromethoxy)benzoyloxy]-14-tert-butoxycarbonylamino-4-cyclopropylsulfonylaminocarbonyl-2,15-dioxo-3,16-diazatricyclo-[14.3.0.0^4,6]-nonadec-7-ene] returned a melting point of 132 to 134 °C. For the same compound, the IC50 in data set [1] was less than 100 nM. Moreover, in data set [2], the EC50 was less than 100 nM.
`COc1ccc(C(=O)O[C@@H]2C[C@H]3C(=O)N[C@]4(C(=O)NS(=O)(=O)C5CC5)C[C@H]4/C=C\COCCC[C@H](NC(=O)OC(C)(C)C)C(=O)N3C2)c(OC)c1` [Compound 8, 18-(2,4-dimethoxybenzoyloxy)-14-tert-butoxycarbonylamino-4-cyclopropylsulfonylaminocarbonyl-2,15-dioxo-3,16-diaza-10-oxatricyclo-[14.3.0.0^4,6]-nonadec-7-ene] had a melting point of 122 to 124 °C. In addition, the half-inhibitory concentration (IC50) in data set [1] was less than 100 nM. For the same compound, the EC50 in data set [2] is 100 to 1000 nM.
In turn, `CC(C)(C)OC(=O)N[C@H]1COCCC/C=C\[C@@H]2C[C@@]2(C(=O)NS(=O)(=O)C2CC2)NC(=O)[C@@H]2C[C@@H](OC(=O)Nc3ccc(Oc4ccccc4)cc3)CN2C1=O` [Compound 41, 18-(4-phenoxyphenylaminocabonyloxy)-14-tert-butoxycarbonylamino-4-cyclopropylsulfonylaminocarbonyl-2,15-dioxo-3,16-diaza-12-oxatricyclo-[14.3.0.0^4,6]-nonadec-7-ene] showed a melting point of 163 to 165 °C. Further, the IC50 in data set [1] is greater than 1000 nM. The EC50 in data set [2] was greater than 1000 nM.
Consider `CC(C)(C)OC(=O)N[C@H]1CCCOC/C=C\[C@@H]2C[C@@]2(C(=O)NS(=O)(=O)C2CC2)NC(=O)[C@@H]2C[C@@H](OC(=O)NCC3CCCCC3)CN2C1=O` [Compound 37, 18-cyclohexylmethylaminocarbonyloxyl-14-tert-butoxycarbonylamino-4-cyclopropylsulfonylaminocarbonyl-2,15-dioxo-3,16-diaza-10-oxatricyclo-[14.3.0.0^4,6]-nonadec-7-ene], for which the melting point lay in the range of 142 to 144 °C. Further, the IC50 in data set [1] fell in the range of 100 to 1000 nM. For the same compound, the EC50 in data set [2] was greater than 1000 nM.
Compound `COc1ccc(C(=O)O[C@@H]2C[C@H]3C(=O)N[C@]4(C(=O)NS(=O)(=O)C5CC5)C[C@H]4/C=C\CCCCC[C@H](NC(=O)OC(C)(C)C)C(=O)N3C2)cc1` [Compound 20, 18-(4-methoxybenzoyloxy)-14-tert-butoxycarbonylamino-4-cyclopropylsulfonylaminocarbonyl-2,15-dioxo-3,16-diazatricyclo-[14.3.0.0^4,6]-nonadec-7-ene] displayed a melting point of 151 to 153 °C. Besides, the IC50 in data set [1] is less than 100 nM. Also, the EC50 in data set [2] was less than 100 nM.
As for `CC(C)(C)OC(=O)N[C@H]1CCCCC/C=C\[C@@H]2C[C@@]2(C(=O)NS(=O)(=O)C2CC2)NC(=O)[C@@H]2C[C@@H](OC(=O)c3ccccn3)CN2C1=O` [Compound 28, 18-(picolinoyloxy)-14-tert-butoxycarbonylamino-4-cyclopropylsulfonylaminocarbonyl-2,15-dioxo-3,16-diazatricyclo-[14.3.0.0^4,6]-nonadec-7-ene], the melting point lay within 164 to 166 °C. In addition, the IC50 in data set [1] was less than 100 nM. Moreover, in data set [2], the EC50 was greater than 1000 nM.
The corresponding values for `CC(C)(C)OC(=O)N[C@H]1CCCCC/C=C\[C@@H]2C[C@@]2(C(=O)NS(=O)(=O)C2CC2)NC(=O)[C@@H]2C[C@@H](OC(=O)c3ccccc3)CN2C1=O` [Compound 15, 18-benzoyloxy-14-tert-butoxycarbonylamino-4-cyclopropylsulfonylaminocarbonyl-2,15-dioxo-3,16-diazatricyclo-[14.3.0.0^4,6]-nonadec-7-ene] are 140 to 142 °C, less than 100 nM and less than 100 nM.
In the case of `CC(C)(C)OC(=O)N[C@H]1COCCC/C=C\[C@@H]2C[C@@]2(C(=O)NS(=O)(=O)C2CC2)NC(=O)[C@@H]2C[C@@H](OC(=O)c3ccc(Oc4ccccc4)cc3)CN2C1=O` [Compound 14, 18-(4-phenoxybenzoyloxy)-14-tert-butoxycarbonylamino-4-cyclopropylsulfonylaminocarbonyl-2,15-dioxo-3,16-diaza-12-oxatricyclo-[14.3.0.0^4,6]-nonadec-7-ene], the melting point was in the range of 207 to 209 °C. Also, the IC50 in data set [1] lay within 100 to 1000 nM. The EC50 in data set [2] was 100 to 1000 nM.
